From article PMC11040352, “CD38‐Specific Gallium‐68 Labeled Peptide Radiotracer Enables Pharmacodynamic Monitoring in Multiple Myeloma with PET” (Advanced Science, 2024)
“And” between values parts separate entries of the source, which are not always exact repeats. Equal values may be shown once. Read-outs that look alike come from different tables or passages of the source.

Legend:
MOLP8 tumor xenografts = assay: Ex vivo biodistribution in mice with MOLP8 tumor xenografts; set-up: species or system NSG mice; conditions: MOLP8 xenograft mice
Protocol: (§1) Animal studies were performed under Johns Hopkins University Animal Care and Use Committee (ACUC‐approved protocol (Principal investigator: Sridhar Nimmagadda, Ph.D. and Protocol number M021M175). Male and female NSG mice (5‐6 weeks old) were used to establish xenografts by administering 3 million cells (50% Corning Matrigel) subcutaneously to form various tumor models within 3–4 weeks. Imaging or biodistribution studies (n = 3–5) were conducted on mice with tumor volumes of 100–200 mm^3. Disseminated tumor models were developed by injecting 4–5 million cells in saline intravenously for MOLP8 and MM1S‐Luc models (n = 4–5). Luciferase expressing MM1S cell line (MM1S‐Luc) was used to monitor cancer cell dissemination in the body. Tumor establishment was confirmed by injecting D‐Luciferin intraperitoneally (150 mg kg^−1) and imaged mice after 10 min in IVIS bioluminescence imaging system. Bone marrow tumors were ready for imaging after 25–30 d of implantation.
(§2) Mice with 100–200 mm^3 tumor volume were used for ex vivo biodistribution studies. For radiotracer pharmacokinetics studies, mice with MOLP8 tumor xenografts received ≈80 µCi (2.96 MBq) [^68Ga]Ga‐AJ206 and were sacrificed at pre‐determined time points (5, 30, 60 and 120 min). Similarly, for dosimetry study, mice with MM1S tumor xenografts received ≈80 µCi (2.96 MBq) of [^68Ga]Ga‐AJ206 and were sacrificed at pre‐determined time points (5, 30, 60, 90 and 120 min). All other mice were injected with ≈50µCi (1.85 MBq) [^68Ga]Ga‐AJ206 and were sacrificed at 60 min. The selected tissues were collected, weighed, counted, and their %ID g^−1 values calculated for biodistribution analysis. The tissues included blood, muscle, tumor, thymus, heart, lung, liver, pancreas, stomach, small intestine, large intestine, spleen, adrenals, kidney, bladder, femur, and brain.

[1] = Ex vivo biodistribution in mice with U266 tumor xenografts; conditions: both sexes, NSG, mouse, 60 min p.i., U266 xenograft mice; for tissue uptake at 1 h: 50 µCi; for tissue to tissue ratio at 1 h: 50 uCi, total radioactivity
Protocol: as §1, §2

[2] = 60 min p.i., listed as [68Ga]Ga-AJ206

CC[C@H](C)[C@@H]1NC(=O)[C@@H]2CCCN2C(=O)[C@H](Cc2ccccc2)NC(=O)[C@H](CC(=O)O)NC(=O)[C@H](C)NC(=O)[C@@H]2CSCc3cc(cc(c3)CSC[C@H](NC(=O)[C@H](C)NC(=O)CCOCCOCCOCCNC(=O)CN3CCN(CC(=O)O)CCN(CC(=O)O)CC3)C(=O)N[C@@H](C(C)C)C(=O)N3CCC[C@H]3C(=O)N2)CSC[C@@H](C(N)=O)NC(=O)[C@H](Cc2ccc(O)cc2)NC(=O)[C@H](Cc2c[nH]c3ccccc23)NC1=O [[^68Ga]Ga‐AJ206, metal not drawn]
uptake in femur (MOLP8 tumor xenografts; 60 min p.i.): 0.28 ± 0.07 %ID g^−1
uptake in heart (MOLP8 tumor xenografts; 60 min p.i.): 0.29 ± 0.03 %ID g^−1
uptake in kidney (MOLP8 tumor xenografts; 60 min p.i.): 16 %ID g^−1 and 16.65 ± 2.52 %ID g^−1
uptake in liver (MOLP8 tumor xenografts; 60 min p.i.): 1.22 ± 0.09 %ID g^−1
uptake in lungs (MOLP8 tumor xenografts; 60 min p.i.): 0.71 ± 0.10 %ID g^−1
uptake in muscle (MOLP8 tumor xenografts; 60 min p.i.): 0.14 ± 0.02 %ID g^−1
uptake in small intestine (MOLP8 tumor xenografts; 60 min p.i.): 0.65 ± 0.09 %ID g^−1
uptake in spleen (MOLP8 tumor xenografts; 60 min p.i.): 0.39 ± 0.03 %ID g^−1
uptake in stomach (MOLP8 tumor xenografts; 60 min p.i.): 0.25 ± 0.06 %ID g^−1
uptake in tumor (MOLP8 tumor xenografts; 60 min p.i.): 3.76 ± 0.25 %ID g^−1
uptake in blood (MOLP8 tumor xenografts; [2]): 0.56±0.09 %ID g^−1
uptake in femur (MOLP8 tumor xenografts; [2]): 0.28±0.07 %ID g^−1
uptake in heart (MOLP8 tumor xenografts; [2]): 0.29±0.03 %ID g^−1
uptake in kidney (MOLP8 tumor xenografts; [2]): 16.65±2.52 %ID g^−1
uptake in liver (MOLP8 tumor xenografts; [2]): 1.22±0.09 %ID g^−1
uptake in lungs (MOLP8 tumor xenografts; [2]): 0.71±0.10 %ID g^−1
uptake in muscle (MOLP8 tumor xenografts; [2]): 0.14±0.02 %ID g^−1
uptake in small intestine (MOLP8 tumor xenografts; [2]): 0.65±0.09 %ID g^−1
uptake in spleen (MOLP8 tumor xenografts; [2]): 0.39±0.03 %ID g^−1
uptake in stomach (MOLP8 tumor xenografts; [2]): 0.25±0.06 %ID g^−1
uptake in tumor (MOLP8 tumor xenografts; [2]): 3.76±0.25 %ID g^−1
uptake in blood (MOLP8 tumor xenografts; 120 min p.i.): 0.05 ± 0.01 %ID g^−1
uptake in femur (MOLP8 tumor xenografts; 120 min p.i.): 0.07 ± 0.01 %ID g^−1
uptake in heart (MOLP8 tumor xenografts; 120 min p.i.): 0.05 ± 0.01 %ID g^−1
uptake in kidney (MOLP8 tumor xenografts; 120 min p.i.): 13.75 ± 0.23 %ID g^−1
uptake in liver (MOLP8 tumor xenografts; 120 min p.i.): 0.42 ± 0.01 %ID g^−1
uptake in lungs (MOLP8 tumor xenografts; 120 min p.i.): 0.16 ± 0.03 %ID g^−1
uptake in muscle (MOLP8 tumor xenografts; 120 min p.i.): 0.07 ± 0.04 %ID g^−1
uptake in small intestine (MOLP8 tumor xenografts; 120 min p.i.): 0.18 ± 0.04 %ID g^−1
uptake in spleen (MOLP8 tumor xenografts; 120 min p.i.): 0.17 ± 0.02 %ID g^−1
uptake in stomach (MOLP8 tumor xenografts; 120 min p.i.): 0.03 ± 0.01 %ID g^−1
uptake in tumor (MOLP8 tumor xenografts; 120 min p.i.): 1.46 ± 0.02 %ID g^−1
blood pool activity cleared (MOLP8 tumor xenografts; by 60 min): ~95%
tissue uptake at 1 h ([1]; blood, read-out: uptake in blood): 0.32 ± 0.06 %ID/g
tissue uptake at 1 h ([1]; femur, read-out: uptake in femur): 0.13 ± 0.02 %ID/g
tissue uptake at 1 h ([1]; heart, read-out: uptake in heart): 0.15 ± 0.02 %ID/g
tissue uptake at 1 h ([1]; kidney, read-out: uptake in kidney): 21.5 ± 2.68 %ID/g
tissue uptake at 1 h ([1]; liver, read-out: uptake in liver): 0.78 ± 0.06 %ID/g
tissue uptake at 1 h ([1]; lung, read-out: uptake in lung): 0.42 ± 0.04 %ID/g
tissue uptake at 1 h ([1]; muscle, read-out: uptake in muscle): 0.08 ± 0.01 %ID/g
tissue uptake at 1 h ([1]; small intestine, read-out: uptake in small intestine): 0.16 ± 0.01 %ID/g
tissue uptake at 1 h ([1]; spleen, read-out: uptake in spleen): 0.24 ± 0.01 %ID/g
tissue uptake at 1 h ([1]; stomach, read-out: uptake in stomach): 0.39 ± 0.3 %ID/g
tissue uptake at 1 h ([1]; tumor, read-out: uptake in tumor): 0.25 ± 0.03 %ID/g
tissue to tissue ratio at 1 h ([1]; tumor/blood, read-out: Tumor/Blood ratio): 0.83 ± 0.09
tissue to tissue ratio at 1 h ([1]; tumor/muscle, read-out: Tumor/Muscle ratio): 3.43 ± 0.28
